What was measured:
[1] = target: T1, renin (Homo sapiens, UniProt P00797); assay: in vitro inhibition of renin, radio immunoassay detection of Angiotensin I from an angiotensinogen-like substrate; assay type: biochemical; settings: 10^-6 M concentration of test compound
T1 sequence (P00797 67-406): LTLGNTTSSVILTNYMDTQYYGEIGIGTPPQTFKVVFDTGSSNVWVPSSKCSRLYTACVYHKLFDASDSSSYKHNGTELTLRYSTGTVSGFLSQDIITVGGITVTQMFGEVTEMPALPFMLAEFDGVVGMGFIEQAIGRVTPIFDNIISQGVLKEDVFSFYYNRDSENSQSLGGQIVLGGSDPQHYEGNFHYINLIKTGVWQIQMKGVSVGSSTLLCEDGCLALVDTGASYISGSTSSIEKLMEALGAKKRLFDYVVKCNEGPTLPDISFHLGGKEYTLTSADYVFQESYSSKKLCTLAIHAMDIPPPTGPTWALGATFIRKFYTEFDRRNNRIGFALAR
Text: The potent in vitro inhibition of the aspartyl protease renin was established using standard radio immunoassay techniques for the detection of Angiotensin I from an angiotensinogen-like substrate [Haber et al. (1969), J. Clin. Endocrinol. 29, 1349]. The results of these standard test procedures appears at the end of each Example of preparation of the relevant compound, as the percent inhibition of renin activity at […] concentration of test compound. The compounds of this invention have also shown strong resistance to breakdown by degradative enzymes such as chymotrypsin, following the procedure of Thaisrivongs et al. (1987) J. Med. Chem. 30, 536-541. […] Even after a 24 hour incubation, 68% of the compound of Example 1 remained. In accord with their ability to inhibit the enzyme renin, the compounds of this invention show plasma renin lowering effects and an antihypertensive action in a furosemide-stimulated high-renin model [De […]. et al. (1985), J. Cardiovascular Pharmacology 7, (Suppl. 4), S58-S61] with conscious rhesus monkeys, utilizing intravenous as well as oral dosing. For example, the product of Example 1 administered at 5 mg/kg iv lowered plasma renin activity (PRA) from 45 ng/ml/min to 5 ng/ml/min one half hour post-administration. Mean arterial pressure (MAP) was lowered 25 mm in that time period.

[2] = resistance to breakdown on incubation with chymotrypsin; assay type: in vitro ADME; settings: read-out: remaining compound after incubation with chymotrypsin; for remaining at 1 h: incubation for one hour
Text: The potent in vitro inhibition of the aspartyl protease renin was established using standard radio immunoassay techniques for the detection of Angiotensin I from an angiotensinogen-like substrate [Haber et al. (1969), J. Clin. Endocrinol. 29, 1349]. The results of these standard test procedures appears at the end of each Example of preparation of the relevant compound, as the percent inhibition of renin activity at […] concentration of test compound. The compounds of this invention have also shown strong resistance to breakdown by degradative enzymes such as chymotrypsin, following the procedure of Thaisrivongs et al. (1987) J. Med. Chem. 30, 536-541. For example, the compound of Example 1 was nearly unchanged upon incubation with chymotrypsin for one hour (93% remaining compound) whereas Boc-Phe Leu-ACHBA-OMe was extensively degraded (22% remaining compound) in the same time period. Even after a 24 hour incubation, 68% of the compound of Example 1 remained. In accord with their ability to inhibit the enzyme renin, the compounds of this invention show plasma renin lowering effects and an antihypertensive action in a furosemide-stimulated high-renin model [De Claviere, M. et al. (1985), J. Cardiovascular Pharmacology 7, (Suppl. 4), S58-S61] with conscious rhesus monkeys, utilizing intravenous as well as oral dosing. For example, the product of Example 1 administered at 5 mg/kg iv lowered plasma renin activity (PRA) from 45 ng/ml/min to 5 ng/ml/min one half hour post-administration. Mean arterial pressure (MAP) was lowered 25 mm in that time period.

[3] = system: conscious rhesus monkeys (furosemide-stimulated high-renin model); assay: furosemide-stimulated high-renin model with conscious rhesus monkeys; assay type: in vivo
[4] = orally at 50 ng/kg, one-half hour post-administration

Compound: CC(C)OC(=O)C(O)C(CC1CCCCC1)NC(=O)[C@H](Cc1c[nH]cn1)NC(=O)[C@H](Cc1ccccc1)N1Cc2ccccc2C1=O (stereo partly drawn) [Example 5, Beta-[[2-[[2-(1,3-dihydro-1-oxo-2H-isoindol-2-yl)-1-oxo-3-phenylpropyl]amino]-3-(1H-imidazol-4-yl)-1-oxopropyl]amino]-alphahydroxycyclohexanebutanoic acid 1-methylethyl ester]
- % I, percent inhibition of renin activity [1]: 83%

Compound: COC(=O)C(O)C(CC1CCCCC1)NC(=O)[C@H](CC(C)C)NC(=O)[C@H](Cc1ccccc1)N1C(=O)OC(C)(C)C1C (stereo partly drawn) [Example 9, Beta-[[2-[[2-[4,5,5-trimethyl-2-oxo-3-oxazolidinyl]-1-oxo-3-phenylpropyl]amino]-4-methyl-1-oxo-pentyl]amino]-alphahydroxycyclohexanebutanoic acid methyl ester]
- % I, percent inhibition of renin activity [1]: 76%

Compound: CC(C)C[C@H](NC(=O)[C@H](Cc1ccccc1)N1Cc2cccc3cccc(c23)C1=O)C(=O)NC(CC1CCCCC1)C(O)C(=O)OC(C)C (stereo partly drawn) [Example 13, Beta-[[2-[[2-[1,3-dihydro-1-oxo-2H-benzisoquinolin-2-yl]-1-oxo-3-phenylpropyl]amino]-4-methyl-1-oxo-pentyl]amino]-alphahydroxycyclohexanebutanoic acid 1-methylethyl ester]
- % I, percent inhibition of renin activity [1]: 92%

Compound: CCC[C@H](NC(=O)[C@H](Cc1ccccc1)N1Cc2ccccc2C1=O)C(=O)NC(CC1CCCCC1)C(O)C(=O)OC(C)C (stereo partly drawn) [Example 11, Beta-[[2-[[2-[1,3-dihydro-1-oxo-2H-isoindol-2-yl]-1-oxo-3-phenylpropyl]amino]-1-oxo-pentyl]amino]-alphahydroxycyclohexanebutanoic acid 1-methylethyl ester]
- % I, percent inhibition of renin activity [1]: 99%

Compound: Beta-[[2-[[2-[5-oxo-5H-imidazo[1,2-a]imidazol-6(7H)-yl]-1-oxo-3-phenylpropyl]amino]-4-methyl-1-oxo-pentyl]amino]-alpha-hydroxycyclohexanebutanoic acid 1-methylethyl ester [Example 15]
- % I, percent inhibition of renin activity [1]: 96%

Compound: COC(=O)C(O)C(CC1CCCCC1)NC(=O)[C@H](Cc1c[nH]cn1)NC(=O)[C@H](Cc1ccccc1)N1Cc2ccccc2C1=O (stereo partly drawn) [Example 4, Beta-[[2-[[2-(1,3-dihydro-1-oxo-2H-isoindol-2-yl)-1-oxo-3-phenylpropyl]amino]-3-(1H-imidazol-4-yl)-1-oxopropyl]amino]-alpha-hydroxycyclohexane butanoic acid methyl ester]
- % I, percent inhibition of renin activity [1]: 84%

Compound: COC(=O)C(O)C(CC1CCCCC1)NC(=O)[C@H](Cc1c[nH]cn1)NC(=O)[C@H](Cc1ccccc1)N1C(=O)c2ccccc2C1=O (stereo partly drawn) [Example 7, Beta-[[2-[[2-(1,3-dihydro-1,3-dioxo-2H-isoindol-2-yl)-1-oxo-3-phenylpropyl]amino]-3-(1H-imidazol-4-yl)-1-oxopropyl]amino]-alphahydroxycyclohexanebutanoic acid methyl ester]
- % I, percent inhibition of renin activity [1]: 9%

Compound: CC(C)C[C@H](NC(=O)[C@H](Cc1ccccc1)N1C[C@@H]2CCCN2C1=O)C(=O)NC(CC1CCCCC1)C(O)C(=O)OC(C)C (stereo partly drawn) [Example 16, Beta-[[2-[[2-[(7aS)-tetrahydro-3-oxo-1H-pyrrolo[1,2-c]imidazol-2(3H)-yl]-1-oxo-3-phenylpropyl]amino]-4-methyl-1-oxo-pentyl]amino]-alpha-hydroxycyclohexanebutanoic acid 1-methylethyl ester]
- % I, percent inhibition of renin activity [1]: 91%

Compound: COC(=O)C(O)C(CC1CCCCC1)NC(=O)[C@H](CC(C)C)NC(=O)[C@H](Cc1ccccc1)N1C(=O)c2ccccc2C1=O (stereo partly drawn) [Example 6, Beta-[[2-[[2-(1,3-dihydro-1,3-dioxo-2H-isoindol-2-yl)-1-oxo-3-phenylpropyl]amino]-4-methyl-1-oxopentyl]amino]-alphahydroxycyclohexanebutanoic acid methyl ester]
- % I, percent inhibition of renin activity [1]: 45%

Compound: CC(C)C[C@H](NC(=O)[C@H](Cc1ccccc1)N1CCCC1=O)C(=O)NC(CC1CCCCC1)C(O)C(=O)OC(C)C (stereo partly drawn) [Example 14, Beta-[[2-[[2-[2-oxo-1-pyrrolidinyl]-1-oxo-3-phenylpropyl]amino]-4-methyl-1-oxo-pentyl]amino]-alpha-hydroxycyclohexanebutanoic acid 1-methylethyl ester]
- % I, percent inhibition of renin activity [1]: 93%

Compound: CCCC[C@H](NC(=O)[C@H](Cc1ccccc1)N1Cc2ccccc2C1=O)C(=O)NC(CC1CCCCC1)C(O)C(=O)OC(C)C (stereo partly drawn) [Example 12, Beta-[[2-[[2-[1,3-dihydro-1-oxo-2H-isoindol-2-yl]-1-oxo-3-phenylpropyl]amino]-1-oxo-hexyl]amino]-alphahydroxycyclohexanebutanoic acid 1-methylethyl ester]
- % I, percent inhibition of renin activity [1]: 99%

Compound: COC(=O)C(O)C(CC1CCCCC1)NC(=O)[C@H](CC(C)C)NC(=O)[C@H](Cc1ccccc1)N1Cc2ccccc2C1=O (stereo partly drawn) [Example 1, Beta-[[2-[[2-[1,3-dihydro-1-oxo-2H-isoindol-2-yl]-1-oxo-3-phenylpropyl]amino]-4-methyl-1-oxo-pentyl]amino]-alpha-hydroxycyclohexanebutanoic acid methyl ester]
- % I, percent inhibition of renin activity [1]: 97%
- remaining at 24 h ([2]; 24 hour incubation): 68%
- remaining at 1 h [2]: 93%
- lowering of mean arterial pressure (MAP) ([3]; 5 mg/kg iv, one half hour post-administration): 25 mm
- plasma renin activity (PRA) after administration ([3]; 5 mg/kg iv, one half hour post-administration, lowered from 45 ng/ml/min): 5 ng/mL/min
- change in MAP [3, 4]: no significant change
- decrease of PRA [3, 4]: 50%

Compound: COC(=O)C(O)C(CC1CCCCC1)NC(=O)[C@H](CC(C)C)NC(=O)[C@H](Cc1ccccc1)N1CC(C)(C)OC1=O (stereo partly drawn) [Example 10, Beta-[[2-[[2-[5,5-dimethyl-2-oxo-3-oxazolidinyl]-1-oxo-3-phenylpropyl]amino]-4-methyl-1-oxo-pentyl]amino]-alphahydroxycyclohexanebutanoic acid methyl ester]
- % I, percent inhibition of renin activity [1]: 86%

Compound: CC(C)C[C@H](NC(=O)[C@H](Cc1ccccc1)N1Cc2ccccc2C1=O)C(=O)NC(CC1CCCCC1)C(O)C(=O)OC(C)C (single isomer, unassigned) [Example 2 Diastereomer A, Beta-[[2-[[2-[1,3-dihydro-1-oxo-2H-isoindol-2-yl]-1-oxo-3-phenylpropyl]amino]-4-methyl-1-oxo-pentyl]amino]-alpha-hydroxycyclohexanebutanoic acid 1-methylethyl ester]
- % I, percent inhibition of renin activity [1]: 98%

Compound: COC(=O)C(O)C(CC1CCCCC1)NC(=O)[C@H](CC(C)C)NC(=O)[C@H](Cc1ccccc1)N1Cc2ncccc2C1=O (stereo partly drawn) [Example 3, Beta-[[2-[[-2-(1,3-dihydro-1-oxo-2H-pyrrolo[3,4-b]pyridin-2-yl)-1-oxo-3-phenylpropyl]amino]-4-methyl-1-oxopentyl]amino]-alpha-hydroxycyclohexanebutanoic acid methyl ester]
- % I, percent inhibition of renin activity [1]: 89%

Compound: COC(=O)C(O)C(CC1CCCCC1)NC(=O)[C@H](CC(C)C)NC(=O)[C@H](Cc1ccccc1)N1C(=O)c2cccc3cccc(c23)C1=O (some centres unmarked) [Example 8]
- % I, percent inhibition of renin activity [1]: 74%

Compound: COC(=O)C(O)C(CC1CCCCC1)NC(=O)[C@H](CC(C)C)NC(=O)[C@H](Cc1ccccc1)NC(=O)OC(C)(C)C (stereo partly drawn) [Boc-Phe Leu-ACHBA-OMe, N-tertiary butyloxycarbonyl-Phe-Leu-3-amino-4-cyclohexyl-2-hydroxybutanoic acid methyl ester, reference compound]
- remaining at 1 h [2]: 22%

— patent US5023338A, “Renin inhibitors” (American Home Products Corporation, priority 1990, dated 1991)
